Reference: ChEMBL document CHEMBL5149977, “FLT3 Inhibitors in Acute Myeloid Leukemia: Challenges and Recent Developments in Overcoming Resistance” (J Med Chem, 2021)
Values belong to the compound of their own block, whether it stands above or below them.

Key:
BaF3 [1] = assay: cells; settings: Mus musculus
MOLM-14 [2] = assay: cells; settings: Homo sapiens
BaF3 [3] = assay: cells; settings: Mus musculus; remark: listed apart in the source
BaF3 [4] = assay: cells; settings: Mus musculus; remark: listed apart in the source
MV4-11 [5] = assay: cells; settings: Homo sapiens
BaF3 [6] = assay: cells; settings: Mus musculus; remark: listed apart in the source
BaF3 [7] = assay: cells; settings: Mus musculus; remark: listed apart in the source
[8] = target: Receptor-type tyrosine-protein kinase FLT3 (Homo sapiens, UniProt P36888, ITD); assay: Inhibition of FLT3-ITD (unknown origin)
BaF3 [9] = assay: cells; settings: Mus musculus; remark: listed apart in the source
[10] = target: NT-3 growth factor receptor (Homo sapiens, UniProt Q16288); assay: Inhibition of TrkC (unknown origin)
Sequence of NT-3 growth factor receptor (Q16288 whole entry): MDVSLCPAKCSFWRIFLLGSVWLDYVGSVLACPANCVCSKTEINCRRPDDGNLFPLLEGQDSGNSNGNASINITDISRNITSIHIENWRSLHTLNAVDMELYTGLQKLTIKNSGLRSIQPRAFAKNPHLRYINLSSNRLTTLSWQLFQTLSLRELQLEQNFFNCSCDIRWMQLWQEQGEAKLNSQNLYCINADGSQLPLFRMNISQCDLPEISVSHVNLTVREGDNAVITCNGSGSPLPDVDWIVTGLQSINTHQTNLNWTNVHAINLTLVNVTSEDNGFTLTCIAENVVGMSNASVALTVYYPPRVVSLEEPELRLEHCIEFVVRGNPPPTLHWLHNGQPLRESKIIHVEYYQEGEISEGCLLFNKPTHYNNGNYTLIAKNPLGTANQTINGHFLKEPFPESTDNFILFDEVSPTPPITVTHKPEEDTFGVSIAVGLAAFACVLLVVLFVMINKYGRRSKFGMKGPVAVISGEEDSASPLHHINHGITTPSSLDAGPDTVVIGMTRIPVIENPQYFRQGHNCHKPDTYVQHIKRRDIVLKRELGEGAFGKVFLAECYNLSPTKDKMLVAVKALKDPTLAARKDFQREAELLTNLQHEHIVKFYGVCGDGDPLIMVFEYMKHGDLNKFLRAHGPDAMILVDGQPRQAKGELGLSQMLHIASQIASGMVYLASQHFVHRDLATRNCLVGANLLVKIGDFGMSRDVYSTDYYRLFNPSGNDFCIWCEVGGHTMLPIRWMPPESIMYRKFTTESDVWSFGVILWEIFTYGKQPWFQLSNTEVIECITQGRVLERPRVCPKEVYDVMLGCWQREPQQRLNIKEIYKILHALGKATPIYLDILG

[11] = target: Tyrosine-protein kinase ABL1 (Homo sapiens, UniProt P00519); assay: Inhibition of ABL1 (unknown origin)
Sequence of Tyrosine-protein kinase ABL1 (P00519 whole entry): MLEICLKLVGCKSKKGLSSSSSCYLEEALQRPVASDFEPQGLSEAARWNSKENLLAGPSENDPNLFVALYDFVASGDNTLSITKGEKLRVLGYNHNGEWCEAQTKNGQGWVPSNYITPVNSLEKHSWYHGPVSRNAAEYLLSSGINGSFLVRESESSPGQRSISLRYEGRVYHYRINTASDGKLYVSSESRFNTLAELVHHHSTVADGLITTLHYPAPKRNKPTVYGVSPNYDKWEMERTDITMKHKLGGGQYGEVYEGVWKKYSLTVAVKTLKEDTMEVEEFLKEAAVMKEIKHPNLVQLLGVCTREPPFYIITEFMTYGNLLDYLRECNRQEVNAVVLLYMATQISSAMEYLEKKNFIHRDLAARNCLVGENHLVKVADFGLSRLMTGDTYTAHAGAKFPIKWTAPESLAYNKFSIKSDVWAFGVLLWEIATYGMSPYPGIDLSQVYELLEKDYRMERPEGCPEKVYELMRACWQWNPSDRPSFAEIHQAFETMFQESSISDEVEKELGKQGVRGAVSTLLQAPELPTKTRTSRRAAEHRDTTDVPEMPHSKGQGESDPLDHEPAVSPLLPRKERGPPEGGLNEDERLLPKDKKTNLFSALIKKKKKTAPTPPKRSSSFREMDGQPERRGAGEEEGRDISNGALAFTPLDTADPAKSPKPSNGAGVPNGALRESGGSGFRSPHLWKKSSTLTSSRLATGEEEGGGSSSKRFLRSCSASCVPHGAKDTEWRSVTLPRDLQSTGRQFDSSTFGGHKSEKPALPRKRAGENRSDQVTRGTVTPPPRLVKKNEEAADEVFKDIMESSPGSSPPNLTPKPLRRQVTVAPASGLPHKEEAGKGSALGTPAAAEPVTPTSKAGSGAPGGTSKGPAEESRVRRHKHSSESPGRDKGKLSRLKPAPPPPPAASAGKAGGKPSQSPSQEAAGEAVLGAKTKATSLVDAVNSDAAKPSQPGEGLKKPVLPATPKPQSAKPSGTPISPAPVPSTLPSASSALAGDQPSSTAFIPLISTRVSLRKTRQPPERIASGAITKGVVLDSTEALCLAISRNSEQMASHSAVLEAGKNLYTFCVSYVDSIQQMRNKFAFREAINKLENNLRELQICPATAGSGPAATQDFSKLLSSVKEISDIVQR

[12] = target: Tyrosine-protein kinase Fgr (Homo sapiens, UniProt P09769); assay: Inhibition of FGR (unknown origin)
Sequence of Tyrosine-protein kinase Fgr (P09769 whole entry): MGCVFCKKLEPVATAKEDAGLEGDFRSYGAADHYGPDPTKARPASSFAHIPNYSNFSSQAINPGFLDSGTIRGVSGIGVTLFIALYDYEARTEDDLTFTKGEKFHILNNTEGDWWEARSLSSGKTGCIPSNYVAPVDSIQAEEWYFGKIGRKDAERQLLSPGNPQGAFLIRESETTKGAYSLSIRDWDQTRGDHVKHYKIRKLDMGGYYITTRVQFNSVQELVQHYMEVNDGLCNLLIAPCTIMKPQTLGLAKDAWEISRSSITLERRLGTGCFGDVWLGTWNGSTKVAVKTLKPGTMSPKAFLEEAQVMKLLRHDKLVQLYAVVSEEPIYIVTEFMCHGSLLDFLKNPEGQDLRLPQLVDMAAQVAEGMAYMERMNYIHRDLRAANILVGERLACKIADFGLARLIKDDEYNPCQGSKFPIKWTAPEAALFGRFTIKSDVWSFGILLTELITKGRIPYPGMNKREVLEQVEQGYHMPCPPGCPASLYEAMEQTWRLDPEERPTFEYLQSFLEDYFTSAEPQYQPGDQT

[13] = target: Platelet-derived growth factor receptor alpha (Homo sapiens, UniProt P16234); assay: Inhibition of PDGFR alpha (unknown origin)
Sequence of Platelet-derived growth factor receptor alpha (P16234 whole entry): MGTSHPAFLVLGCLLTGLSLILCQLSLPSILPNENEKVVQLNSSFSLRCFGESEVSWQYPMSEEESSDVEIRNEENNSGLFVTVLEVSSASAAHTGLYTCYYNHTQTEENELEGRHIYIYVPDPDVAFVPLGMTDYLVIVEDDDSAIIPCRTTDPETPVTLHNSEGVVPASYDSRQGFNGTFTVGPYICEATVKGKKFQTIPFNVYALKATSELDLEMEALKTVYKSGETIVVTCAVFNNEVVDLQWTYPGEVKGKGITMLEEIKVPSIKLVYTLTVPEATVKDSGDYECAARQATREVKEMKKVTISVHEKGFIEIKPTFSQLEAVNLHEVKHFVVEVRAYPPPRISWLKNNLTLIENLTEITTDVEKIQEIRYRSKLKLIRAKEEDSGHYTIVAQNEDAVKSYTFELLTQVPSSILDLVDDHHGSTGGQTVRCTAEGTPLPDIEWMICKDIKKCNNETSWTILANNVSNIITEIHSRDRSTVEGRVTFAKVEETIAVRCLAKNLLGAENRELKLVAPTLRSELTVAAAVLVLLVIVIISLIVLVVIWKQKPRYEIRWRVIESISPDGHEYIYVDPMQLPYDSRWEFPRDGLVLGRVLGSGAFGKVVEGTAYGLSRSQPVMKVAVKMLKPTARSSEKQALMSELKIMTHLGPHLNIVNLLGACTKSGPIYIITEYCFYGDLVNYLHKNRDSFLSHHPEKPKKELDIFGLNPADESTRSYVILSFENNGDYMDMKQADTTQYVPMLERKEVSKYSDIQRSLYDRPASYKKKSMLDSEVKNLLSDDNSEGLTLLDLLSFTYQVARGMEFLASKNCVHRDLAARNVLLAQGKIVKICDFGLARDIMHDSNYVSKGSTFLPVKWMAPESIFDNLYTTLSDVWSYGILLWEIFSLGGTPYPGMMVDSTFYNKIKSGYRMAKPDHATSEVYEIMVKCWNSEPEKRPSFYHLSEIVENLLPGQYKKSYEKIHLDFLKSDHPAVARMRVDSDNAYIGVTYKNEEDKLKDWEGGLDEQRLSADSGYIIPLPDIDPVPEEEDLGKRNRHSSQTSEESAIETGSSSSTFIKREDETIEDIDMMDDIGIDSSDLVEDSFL

[14] = target: Cyclin-dependent kinase 2 (Homo sapiens, UniProt P24941); assay: Inhibition of CDK2 (unknown origin)
MV4-11 [15] = assay: Cytotoxicity against human MV4-11 cells […] incubated for 72 hrs; format: functional, cell-based; settings: MV4-11, 72 h
[16] = target: T1, Receptor-type tyrosine-protein kinase FLT3 (Homo sapiens, UniProt P36888)
T1 sequence (P36888 whole entry): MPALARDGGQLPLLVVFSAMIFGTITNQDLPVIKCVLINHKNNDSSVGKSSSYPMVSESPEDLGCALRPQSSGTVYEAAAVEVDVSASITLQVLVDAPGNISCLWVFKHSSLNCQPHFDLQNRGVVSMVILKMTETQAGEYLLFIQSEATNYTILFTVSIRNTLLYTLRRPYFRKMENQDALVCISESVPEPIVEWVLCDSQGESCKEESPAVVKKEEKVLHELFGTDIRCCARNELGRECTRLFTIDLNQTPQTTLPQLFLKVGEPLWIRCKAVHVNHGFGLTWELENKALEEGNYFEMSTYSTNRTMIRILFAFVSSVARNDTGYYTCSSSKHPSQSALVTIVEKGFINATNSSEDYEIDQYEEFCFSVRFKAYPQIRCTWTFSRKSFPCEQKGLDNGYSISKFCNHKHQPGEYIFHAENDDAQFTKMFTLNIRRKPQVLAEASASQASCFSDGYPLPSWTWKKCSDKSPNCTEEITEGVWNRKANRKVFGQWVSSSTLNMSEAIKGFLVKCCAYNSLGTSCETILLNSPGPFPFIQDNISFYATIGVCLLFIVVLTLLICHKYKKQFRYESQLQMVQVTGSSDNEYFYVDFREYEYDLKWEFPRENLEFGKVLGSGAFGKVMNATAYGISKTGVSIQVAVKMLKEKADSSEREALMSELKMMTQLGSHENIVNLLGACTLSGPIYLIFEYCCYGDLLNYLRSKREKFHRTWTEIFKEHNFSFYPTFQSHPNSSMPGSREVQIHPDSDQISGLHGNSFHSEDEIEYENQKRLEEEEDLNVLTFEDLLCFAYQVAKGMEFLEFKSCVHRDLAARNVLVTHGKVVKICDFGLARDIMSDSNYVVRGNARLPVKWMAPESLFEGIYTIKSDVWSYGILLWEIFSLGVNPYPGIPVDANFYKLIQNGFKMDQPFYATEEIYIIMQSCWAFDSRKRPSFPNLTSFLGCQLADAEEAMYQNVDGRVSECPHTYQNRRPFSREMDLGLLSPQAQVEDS

[17] = target: Cyclin-dependent kinase 4 (Homo sapiens, UniProt P11802); assay: Inhibition of CDK4 (unknown origin)
Sequence of Cyclin-dependent kinase 4 (P11802 whole entry): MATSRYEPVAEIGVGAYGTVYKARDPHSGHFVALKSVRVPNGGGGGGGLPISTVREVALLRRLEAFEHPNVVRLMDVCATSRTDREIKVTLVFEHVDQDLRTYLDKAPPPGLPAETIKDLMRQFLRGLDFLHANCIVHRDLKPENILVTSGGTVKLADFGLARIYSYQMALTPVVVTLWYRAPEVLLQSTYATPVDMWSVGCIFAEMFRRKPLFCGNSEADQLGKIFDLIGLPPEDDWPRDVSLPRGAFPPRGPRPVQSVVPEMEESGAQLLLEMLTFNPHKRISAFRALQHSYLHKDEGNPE

[18] = target: Cyclin-dependent kinase 6 (Homo sapiens, UniProt Q00534); assay: Inhibition of CDK6 (unknown origin)
Sequence of Cyclin-dependent kinase 6 (Q00534 whole entry): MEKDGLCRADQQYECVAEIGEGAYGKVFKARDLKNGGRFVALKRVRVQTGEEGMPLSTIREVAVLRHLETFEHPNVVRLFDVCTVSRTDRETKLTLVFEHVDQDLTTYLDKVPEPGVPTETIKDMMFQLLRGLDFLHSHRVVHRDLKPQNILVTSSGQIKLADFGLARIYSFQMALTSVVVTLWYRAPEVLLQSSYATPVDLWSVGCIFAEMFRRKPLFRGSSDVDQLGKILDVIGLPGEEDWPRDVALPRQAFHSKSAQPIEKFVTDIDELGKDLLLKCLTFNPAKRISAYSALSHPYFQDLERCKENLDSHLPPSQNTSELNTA

[19] = target: Receptor-type tyrosine-protein kinase FLT3 (Homo sapiens, UniProt P36888, D835Y); assay: Binding affinity to FLT3-D835Y mutant (unknown origin) assessed as dissociation constant
[20] = target: Receptor-type tyrosine-protein kinase FLT3 (Homo sapiens, UniProt P36888, D835H); assay: Binding affinity to FLT3-D835H mutant (unknown origin) assessed as dissociation constant
MV4-11 [21] = assay: Cytotoxicity against human MV4-11 cells incubated for 72 hrs; format: functional, cell-based; settings: MV4-11, 72 h
[22] = Antiproliferative activity against mouse 32D cells expressing FLT3-D835H assessed as cell growth inhibition; format: functional
[23] = Antiproliferative activity against mouse 32D cells expressing FLT3-ITD assessed as cell growth inhibition; format: functional, cell-based
[24] = Antiproliferative activity against mouse 32D cells expressing FLT3-ITD-Y842H assessed as cell growth inhibition; format: functional
[25] = Antiproliferative activity against mouse 32D cells expressing FLT3-ITD-D835Y assessed as cell growth inhibition; format: functional
[26] = Antiproliferative activity against mouse 32D cells expressing FLT3-ITD-Y842C assessed as cell growth inhibition; format: functional
[27] = Antiproliferative activity against mouse 32D cells expressing FLT3-ITD-F691L assessed as cell growth inhibition; format: functional
[28] = Antiproliferative activity against mouse 32D cells expressing FLT3-D835Y assessed as cell growth inhibition; format: functional, cell-based
BaF3 [29] = assay: cells; settings: Mus musculus; remark: listed apart in the source
BaF3 [30] = assay: cells; settings: Mus musculus; remark: listed apart in the source
[31] = target: Leukocyte tyrosine kinase receptor (Homo sapiens) (UniProt P29376); assay: Inhibition of LTK (unknown origin)
MOLM-13 [32] = assay: Antiproliferative activity against drug resistant human MOLM-13 cells incubated for 72 hrs by MTS assay; format: functional
MOLM-13 [33] = assay: Antiproliferative activity against human MOLM-13 cells incubated for 72 hrs by MTS assay; format: functional
MOLM-13 [34] = assay: Cytotoxicity against human MOLM-13 cells expressing FLT3-D835Y measured after 72 hrs by cell titre glo assay; format: functional, cell-based; settings: MOLM-13, 72 h
BaF3 [35] = assay: Cytotoxicity against mouse BaF3 cells expressing FLT3-ITD measured after 72 hrs by cell titre glo assay; format: functional, cell-based; settings: BaF3, 72 h
BaF3 [36] = assay: Cytotoxicity against mouse BaF3 cells expressing FLT3-ITD-F691L measured after 72 hrs by cell titre glo assay; format: functional, cell-based; settings: BaF3, 72 h
BaF3 [37] = assay: Cytotoxicity against mouse BaF3 cells expressing FLT3-ITD-D835Y measured after 72 hrs by cell titre glo assay; format: functional, cell-based; settings: BaF3, 72 h
MOLM-13 [38] = assay: Cytotoxicity against human MOLM-13 cells measured after 72 hrs by cell titre glo assay; format: functional, cell-based; settings: MOLM-13, 72 h
BaF3 [39] = assay: Cytotoxicity against mouse BaF3 cells expressing FLT3-ITD-D835H measured after 72 hrs by cell titre glo assay; format: functional, cell-based; settings: BaF3, 72 h
MOLM-14 [40] = assay: cells; settings: Homo sapiens; remark: listed apart in the source

IC50 (BaF3 [1]): 0.22 nM
IC50 (MOLM-14 [2]): 0.13 nM
IC50 (BaF3 [3]): 0.19 nM
IC50 (BaF3 [4]): 1.1 nM
IC50 (MV4-11 [5]): 0.14 nM
IC50 (BaF3 [6]): 0.17 nM
IC50 (BaF3 [7]): 22 nM
IC50 [8]: 7 nM
IC50 (BaF3 [9]): 2.5 nM
Compound: COc1cc2c(Oc3ccc(NC(=O)Nc4cccc(C)c4)cc3F)ccnc2cc1OCCCN1CCOCC1

IC50 [10]: 0.7 nM
IC50 [11]: 0.6 nM
IC50 [12]: < 0.5 nM
IC50 [13]: 1.1 nM
Compound: COc1cc2ncc(-c3cccc(NC4CCNC4)n3)n2cc1-c1cnn(C)c1 (centres undefined)

IC50 [14]: 375 nM
IC50 [16]: 1 nM
IC50 [17]: 3 nM
IC50 [18]: 8 nM
Kd [19]: 1 nM
Kd [20]: 1 nM
Kd [8]: 4 nM
Compound: C[C@H]1CC[C@@H](n2c3cnccc3c3cnc(Nc4ccc5c(n4)CCN(C(=O)CO)C5)nc32)CC1
IC50 (MV4-11 [15]): 9 nM
IC50 (MV4-11 [21]): 18 nM

Compound: CCCNc1nc(Nc2ccc(C#N)cc2)ncc1C#CCCCNC(=O)[C@H](C)N(C)C(=O)/C=C/CN(C)C [FF-10101]
GI50 [22]: 1.1 nM
IC50 [23]: 1.9 nM
GI50 [24]: 5.3 nM
GI50 [25]: 0.81 nM
GI50 [26]: 3.5 nM
GI50 [27]: 10 nM
IC50 [28]: 0.32 nM

IC50 (BaF3 [29]): 2.1 nM
IC50 (BaF3 [30]): 1.8 nM
IC50 [31]: 0.35 nM
Compound: CCc1nc(C(N)=O)c(Nc2ccc(N3CCC(N4CCN(C)CC4)CC3)c(OC)c2)nc1NC1CCOCC1 [GILTERITINIB]

GI50 (MOLM-13 [32]): 180 nM
GI50 (MOLM-13 [33]): 100 nM
Compound: Cc1nn(C)cc1-c1nc2c(N3CCN(Cc4ccc(Cl)cc4)CC3)c(Cl)cnc2[nH]1 [MOBINITINIB]

Compound: C1=N/C2=N/c3ccc(OCCN4CCCC4)c(c3)COC/C=C/COCc3cccc(c3)C(=C1)N2 [PACRITINIB]
IC50 (MOLM-13 [34]): 173 nM
IC50 (BaF3 [35]): 133 nM
IC50 (BaF3 [36]): 291 nM
IC50 (BaF3 [37]): 434 nM
IC50 (MOLM-13 [38]): 73 nM
IC50 (BaF3 [39]): 306 nM

IC50 (BaF3 [1]): 130 nM
IC50 (MOLM-14 [2]): 350 nM
IC50 (BaF3 [3]): 0.19 nM
IC50 (BaF3 [4]): 97 nM
IC50 (MV4-11 [5]): 200 nM
IC50 (BaF3 [6]): 0.17 nM
IC50 (MOLM-14 [40]): 670 nM
IC50 (BaF3 [7]): 4700 nM
IC50 (BaF3 [9]): 2.5 nM
Compound: FC(F)(F)c1ccc(CNc2ccc(Cc3c[nH]c4ncc(Cl)cc34)cn2)cn1 [PEXIDARTINIB]
